Common to all, as to type: functional, cell-based
One experiment concerns MG-63. Put plainly: Cytotoxicity against human MG63 cells by MTT assay. Background: Tetrazolium dyes change colour on reduction, which living cells bring about.
The subject of another experiment is Huh-7. Put plainly: Cytotoxicity against human HuH7 cells by CCK-8 assay.
For the next experiment, the system named is A549. Put plainly: Cytotoxicity against human A549 cells by MTT assay.

The text below walks through data of ChEMBL document CHEMBL4041485, “Bissubvilides A and B, Cembrane-Capnosane Heterodimers from the Soft Coral Sarcophyton subviride” (J Nat Prod, 2016).

Where a name gives a salt, the structure may show the parent alone.

In the case of `CC1=C2CCC3=CCC[C@@](C)(OC3=O)[C@@H](O)CC/C(C)=C/[C@@H]2[C@@]23CC/C(C(C)C)=C\[C@H]4[C@@](C)(O)CC[C@]4(O)[C@@](C)(CC[C@@H]2C1)OC3=O`, the IC50 (usually the concentration needed to halve the response being measured) with MG-63 was greater than 30 µM; with Huh-7 it was greater than 50 µM; in the experiment with A549, greater than 25 µM.
For `C=C(C)/C1=C/[C@H]2[C@@](C)(O)CC[C@]2(O)[C@@]2(C)CC[C@@H]3CC(C)=C4CCC5=CCC[C@@](C)(OC5=O)[C@@H](O)CC/C(C)=C/[C@@H]4[C@]3(CC1)C(=O)O2`, in that order: greater than 30 µM, greater than 50 µM and greater than 25 µM.
For `COc1cccc2c1C(=O)c1c(O)c3c(c(O)c1C2=O)C[C@@](O)(C(=O)CO)C[C@@H]3O[C@H]1C[C@H](N)[C@H](O)[C@H](C)O1` [DOXORUBICIN HYDROCHLORIDE] the same measures were 2.2 µM, 14.8 µM and 2.9 µM.
